The record followed here is patent US20040023228A1, “System and method for analysing active ingredients designed to influence intra-cellular processes” (priority 2000, published 2004).

This assay deals with tubulin. Nature of the assay: FCS measurement of incorporation of rhodamine-labeled tubulin dimers into preformed microtubules (exchange kinetics in the assembly equilibrium). To be noted: 10^−5M tubulin assembly mixture, 10^−9M rhodamine-labeled tubulin, 37° C.

The structures appear in SMILES notation.

Consider `COC(=O)Nc1nc2ccc(C(=O)c3cccs3)cc2[nH]1` [nocodazole], for which the “concentration up to which the action on the described kinetics can be tracked” value was 10^−11 M. Regarding `CC(=O)O[C@H]1C(=O)[C@@]2(C)[C@H]([C@H](OC(=O)c3ccccc3)[C@]3(O)C[C@H](OC(=O)[C@H](O)[C@@H](NC(=O)c4ccccc4)c4ccccc4)C(C)=C1C3(C)C)[C@]1(OC(C)=O)CO[C@@H]1C[C@@H]2O` [taxol, paclitaxel], the “concentration up to which the action on the described kinetics can be tracked” value is listed as 10^−11 M.
